In article PMC10079954, “Rational design of phase separating peptides based on phase separating protein sequence of p53” (Scientific Reports, 2023):

How the values were obtained:
p53 dimer (L344A) mutant = test: Recruitment (enrichment index) of p53 dimer into designed peptide droplets; set-up: species or system human; conditions: (GGGS)3-linker versus GSGS-linker droplets; no salt, pH 7.0
Source text: (§1) We prepared p53 tetramer, dimer, and monomer mutants, as described previously[8],[37],[50]. For the p53 tetramer, a thermostable and cysteine-modified human p53 mutant (C124A, C135V, C141V, W146Y, C182S, V203A, R209P, C229Y, H233Y, Y234F, N235K, Y236F, T253V, N268D, C275A, C277A, and K292C) was used[50]. The dimer and monomer mutants of p53 corresponded to L344A and L344P of the tetramer sequence, respectively[8],[37]. These p53 mutants were expressed with a glutathione S-transferase (GST) tag in E. coli and purified after cleavage of the GST tag, as described previously[50],[51]. The oligomeric state of p53 mutants was confirmed using a gel filtration column (Superdex 200; GE Healthcare). p53 mutants were labeled with Atto488 (ATTO-TEC) or Alexa488 (Thermo Fisher) using maleimide chemistry and then purified using a heparin column (GE Healthcare). We prepared Alexa488-labeled FUS-MBP as described previously[37],[39].
Recruitment evaluations were performed following the method described in our previous studies[37],[41]. […] Using the ImageJ software, we calculated the EI values of the individual droplets as follows:2 EI=Idroplet/Isolution, where Idroplet and Isolution represent the average fluorescence intensities of the individual droplets and solutions near the droplets with background substitution, respectively.

[1] = test system: p53 monomer (L344P) mutant; test: Recruitment (enrichment index) of p53 monomer into designed peptide droplets; set-up: species or system human; conditions: (GGGS)3-linker versus GSGS-linker droplets; no salt, pH 7.0
Source text: as §1
(§2) Recruitment evaluations were performed following the method described in our previous studies[37],[41]. Solutions containing 0.9–1.8 mM designed peptides, 0.1 µM Alexa488-labeled p53 mutants or Alexa488, 25 mM HEPES, 0.5 mM EDTA, and 1 mM DTT at pH 7.0 were used. The solutions were then incubated at 22 °C for five minutes. The aforementioned microscope was used with HILO illumination. To prevent photo-bleaching of the fluorescent samples, we used a laser power of 0.15 mW. The images were acquired at 22 °C. Using the ImageJ software, we calculated the EI values of the individual droplets as follows:2 EI=Idroplet/Isolution, where Idroplet and Isolution represent the average fluorescence intensities of the individual droplets and solutions near the droplets with background substitution, respectively.

[2] = Single-molecule fluorescence tracking (HILO) of labeled molecules in their droplets; type: physicochemical; conditions: Alexa488-labeled peptide 10–100 pM in 0.9 mM non-labeled peptide droplets; 25 mM HEPES, 0.5 mM EDTA, 45 mM NaCl, 150 mg/mL dextran, pH 7.0; linear fit of MSD (4D slope)
Procedure: We quantitatively characterized the liquid droplet properties of the four designed peptides and compared them with those of p53. We measured the fusion of the designed peptide droplets in the solution used for p53 droplets (Supplementary Fig. S4). In the presence of 45 mM NaCl and 150 mg/mL dextran, the fusion of droplets for the four designed peptides was observed within 0.2 s, which was much faster than that for p53 (3.7 min)[8]. This gap in the fusion period implies different intrinsic dynamic properties. We measured the movement of Alexa488-labeled peptides within non-labeled peptide droplets using single-molecule fluorescence microscopy with a highly inclined and laminated optical sheet (HILO) illumination[37],[41] (Fig. 3A). […]
Single-molecule measurements were performed following the method described in our previous studies[37],[41]. An inverted fluorescence microscope (IX-73; Olympus) with a total internal reflection fluorescence unit (IX3RFAEVAW; Olympus) was used[52],[53]. […] The fluorescence collected via the objective lens was detected using an EM-CCD camera (iXon Ultra 888, Andor). […] Images were recorded at intervals of 15–154 ms after reducing the number of observable molecules in the droplets by photobleaching within one minute. […]

p53 tetramer = test: Recruitment (enrichment index) of p53 tetramer into designed peptide droplets; set-up: species or system human; conditions: (GGGS)3-linker versus GSGS-linker droplets; no salt, pH 7.0
Source text: as §1, §2

## RRRVVQRRRRGGGSGGGSGGGSDDDASQEDDD [DPp53N-(GGGS)3-DPp53C1]
p53 dimer (L344A) mutant
  Increase of average EI of p53 dimer mutant compared to the GSGS-linker peptide: 1.5 fold
[1]
  Decrease of average EI of p53 monomer mutant compared to the GSGS-linker peptide: 1.2 fold
[2]
  Average diffusion coefficient (D) in own droplets: 2.03 ± 0.06 μm^2/s
p53 tetramer
  Increase of average EI of p53 tetramer compared to the GSGS-linker peptide: 1.8 fold
